Structures are written as SMILES. Structures can show the parent of a compound that is named as a salt.

This passage reports IC50 results from patent US20250034150A1, “BTK INHIBITORS” (BIOGEN MA INC., priority 2021, published 2025).

The target in the assay is T1, BTK (Homo sapiens, UniProt Q06187).
T1 construct: purchased Upstate 14-552
T1 sequence (Q06187 whole entry): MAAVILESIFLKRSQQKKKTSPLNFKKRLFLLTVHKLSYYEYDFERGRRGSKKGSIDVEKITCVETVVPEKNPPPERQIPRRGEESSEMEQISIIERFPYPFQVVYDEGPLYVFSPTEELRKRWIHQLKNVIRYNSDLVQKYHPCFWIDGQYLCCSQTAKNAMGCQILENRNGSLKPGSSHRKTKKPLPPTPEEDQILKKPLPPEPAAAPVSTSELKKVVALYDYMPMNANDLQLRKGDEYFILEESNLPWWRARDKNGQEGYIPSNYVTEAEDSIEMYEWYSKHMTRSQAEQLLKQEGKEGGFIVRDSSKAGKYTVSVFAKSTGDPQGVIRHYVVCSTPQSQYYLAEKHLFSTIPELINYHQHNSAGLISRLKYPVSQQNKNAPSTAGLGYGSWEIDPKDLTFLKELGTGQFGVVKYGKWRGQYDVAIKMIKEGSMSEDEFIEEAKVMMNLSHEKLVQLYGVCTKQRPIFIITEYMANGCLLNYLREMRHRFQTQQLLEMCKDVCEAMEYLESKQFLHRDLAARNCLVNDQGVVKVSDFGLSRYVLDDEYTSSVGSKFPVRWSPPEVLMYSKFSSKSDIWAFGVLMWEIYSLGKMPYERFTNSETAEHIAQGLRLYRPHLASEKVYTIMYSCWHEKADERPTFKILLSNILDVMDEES
As to the kind of experiment: In Vitro BTK Kinase Assay: Btk-PolyGAT-LS Assay. The assay is classed as biochemical. The conditions noted are these: active BTK enzyme 0.25 nM, polyGAT 100 nM, 30 minutes, TRF readout; read-out: In Vitro BTK Kinase Assay IC50 Score. Here is the method:
The purpose of the BTK in vitro assay is to determine compound potency against BTK through the measurement of IC50. Compound inhibition is measured after monitoring the amount of phosphorylation of a fluorescein-labeled polyGAT peptide (Invitrogen PV3611) in the presence of active BTK enzyme (Upstate 14-552), ATP, and inhibitor. The BTK kinase reaction was done in a black 96 well plate (costar 3694). For a typical assay, a 24 μL aliquot of a ATP/peptide master mix (final concentration; ATP […], polyGAT 100 nM) in kinase buffer (10 mM Tris-HCl pH 7.5, 10 mM MgCl2, 200 μM […], 5 mM DTT, 0.01% Triton X-100, and 0.2 mg/ml casein) is added to each well. Next, […] of a 4-fold, 40× compound titration in 100% DMSO solvent is added, followed by adding 15 μL of BTK enzyme mix in 1× kinase buffer (with a final concentration of 0.25 nM). The assay is incubated for 30 minutes before being stopped with 28 μL of a 50 mM EDTA solution. Aliquots (5 uL) of the kinase reaction are transferred to a low volume white 384 well plate (Coming 3674), and 5 μL of a 2× detection buffer (Invitrogen PV3574, with 4 nM Tb—PY20 antibody, Invitrogen PV3552) is added. The plate is covered and incubated for 45 minutes at room temperature. Time resolved fluorescence (TRF) on Molecular Devices M5 (332 nm excitation; 488 nm emission; 518 nm fluorescein emission) is measured. IC50 values are calculated using a four parameter fit with 100% enzyme activity determined from the DMSO control and 0% activity from the EDTA control.
With `C[C@@H]1CN(c2nc(-c3cnn(C)c3)cn3nccc23)CC[C@H]1CNC(=O)c1noc(C2(C)CC2)n1` (single isomer, unassigned) [Example 145], the 50% inhibitory concentration (IC50) fell in the range of 0.01 to 1 µM.
In the case of `Cn1cc(-c2cc(-c3ccc(CNC(=O)c4cnn(C(C)(C)C)c4)cc3)n3cnnc3c2)cn1` [Example 77, 1-(tert-butyl)-N-(4-(7-(1-methyl-1H-pyrazol-4-yl)-[1,2,4]triazolo[4,3-a]pyridin-5-yl)benzyl)-1H-pyrazole-4-carboxamide] it was 0.01 to 1 µM; in that of `C[C@@H]1C[C@H](CNC(=O)c2cn(C(C)(C)C)nn2)CCN1c1nc(-c2cnn(C)c2)cn2nccc12` (single isomer, unassigned) [Example 141], 0.01 to 1 µM; in that of `Cn1cc(-c2cn3nccc3c(-c3ccc(CNC(=O)c4ccn(C(C)(C)C)n4)cc3F)n2)cn1` [Example 111, 1-(tert-butyl)-N-(3-fluoro-4-(6-(1-methyl-1H-pyrazol-4-yl)pyrazolo[1,5-a]pyrazin-4-yl)benzyl)-1H-pyrazole-3-carboxamide], 0.01 to 1 µM.
The value for `Cc1cc(-c2nc(N3CCN(C)CC3)cn3nccc23)ccc1CNC(=O)c1noc(C2(C)CC2)n1` [Example 131, N-(2-methyl-4-(6-(4-methylpiperazin-1-yl)pyrazolo[1,5-a]pyrazin-4-yl)benzyl)-5-(1-methylcyclopropyl)-1,2,4-oxadiazole-3-carboxamide trifluoroacetate] was 0.001 to 0.01 µM; that for `Cn1cc(-c2cn3nccc3c(N3CCC(C)(CNC(=O)c4cn(C(C)(C)C)nn4)C3)n2)cn1` (stereo not shown) [Example 49, 1-(tert-butyl)-N-((3-methyl-1-(6-(1-methyl-1H-pyrazol-4-yl)pyrazolo[1,5-a]pyrazin-4-yl)pyrrolidin-3-yl)methyl)-1H-1,2,3-triazole-4-carboxamide] was 1 to 10 µM.
In the case of `Cn1cc(-c2cn3nccc3c(N3CCCC(CNC(=O)c4cn(C(C)(C)C)nn4)CC3)n2)cn1` (stereo not shown) [Example 167, 1-(tert-butyl)-N-((1-(6-(1-methyl-1H-pyrazol-4-yl)pyrazolo[1,5-a]pyrazin-4-yl)azepan-4-yl)methyl)-1H-1,2,3-triazole-4-carboxamide], the 50% inhibitory concentration (IC50) lay within 0.01 to 1 µM.
As for `Cn1cc(-c2cn3nccc3c(N3C[C@H]4CC[C@@H](C3)[C@H]4CNC(=O)c3noc(C(C)(C)C)n3)n2)cn1` [Example 164, 5-(tert-butyl)-N-(((1R,5S,8s)-3-(6-(1-methyl-1H-pyrazol-4-yl)pyrazolo[1,5-a]pyrazin-4-yl)-3-azabicyclo[3.2.1]octan-8-yl)methyl)-1,2,4-oxadiazole-3-carboxamide], the concentration for half-maximal inhibition (IC50) fell in the range of 0.01 to 1 µM.
In the case of `Cc1cc(-c2nc(N3CCN(C)CC3)cn3nccc23)ccc1CNC(=O)c1cnn(C(C)(C)C)n1` [Example 124, 2-(tert-butyl)-N-(2-methyl-4-(6-(4-methylpiperazin-1-yl)pyrazolo[1,5-a]pyrazin-4-yl)benzyl)-2H-1,2,3-triazole-4-carboxamide trifluoroacetate] it was 0.01 to 1 µM; in that of `Cn1cc(-c2cn3nccc3c(N3CCC4(CC(NC(=O)c5noc(C(C)(C)C)n5)C4)C3)n2)cn1` (stereo not shown) [Example 52, 5-(tert-butyl)-N-(6-(6-(1-methyl-1H-pyrazol-4-yl)pyrazolo[1,5-a]pyrazin-4-yl)-6-azaspiro[3.4]octan-2-yl)-1,2,4-oxadiazole-3-carboxamide], 1 to 10 µM; in that of `Cn1cc(-c2cn3nccc3c(N3CCC(CN4CCN(CC5CCC5)CC4=O)CC3)n2)cn1` [Example 169, 4-(Cyclobutylmethyl)-1-((1-(6-(1-methyl-1H-pyrazol-4-yl)pyrazolo[1,5-a]pyrazin-4-yl)piperidin-4-yl)methyl)piperazin-2-one], 0.01 to 1 µM.
In the case of `Cn1cc(-c2cn3nccc3c(N3CC[C@H](CNC(=O)c4noc(C(C)(C)C)n4)C(F)(F)C3)n2)cn1` (single isomer, unassigned) [Example 159] it was 0.01 to 1 µM; in that of `CC(C)(C)n1cc(C(=O)NCc2ccc(-c3nc(N4CCOCC4)cn4nccc34)cc2)cn1` [Example 27, 1-(tert-butyl)-N-(4-(6-morpholinopyrazolo[1,5-a]pyrazin-4-yl)benzyl)-1H-pyrazole-4-carboxamide], 1 to 10 µM.
In the case of `CC(C)(C)c1nnc(C(=O)NCc2ccc(-c3nc(N4CCOCC4)cn4nccc34)cc2)o1` [Example 29, 5-(tert-butyl)-N-(4-(6-morpholinopyrazolo[1,5-a]pyrazin-4-yl)benzyl)-1,3,4-oxadiazole-2-carboxamide] it was 1 to 10 µM; in that of `Cn1cc(-c2cc(-c3ccc(CNC(=O)c4cn(C(C)(C)C)nn4)cc3)n3cnnc3c2)cn1` [Example 75, 1-(tert-butyl)-N-(4-(7-(1-methyl-1H-pyrazol-4-yl)-[1,2,4]triazolo[4,3-a]pyridin-5-yl)benzyl)-1H-1,2,3-triazole-4-carboxamide], 0.01 to 1 µM.
As for `CC(C)N1CCN(CC2CCN(c3nc(-c4cnn(C)c4)cn4nccc34)CC2)C(=O)C1` [Example 173, 4-isopropyl-1-((1-(6-(1-methyl-1H-pyrazol-4-yl)pyrazolo[1,5-a]pyrazin-4-yl)piperidin-4-yl)methyl)piperazin-2-one], the concentration for half-maximal inhibition (IC50) fell in the range of 1 to 10 µM.
In the case of `CC(NC(=O)c1cn(C(C)(C)C)nn1)C1CCN(c2nc(-c3cnn(C)c3)cn3nccc23)CC1` (stereo not shown) [Example 163, 1-(tert-butyl)-N-(1-(1-(6-(1-methyl-1H-pyrazol-4-yl)pyrazolo[1,5-a]pyrazin-4-yl)piperidin-4-yl)ethyl)-1H-1,2,3-triazole-4-carboxamide] it was 0.01 to 1 µM.
In the case of `Cn1cc(-c2cn3nccc3c(N3CCC4(CC(NC(=O)c5noc(C(C)(C)C)n5)C4)C3)n2)cn1` (single isomer, unassigned) [Example 54, 5-(tert-butyl)-N-((2s,4r)-6-(6-(1-methyl-1H-pyrazol-4-yl)pyrazolo[1,5-a]pyrazin-4-yl)-6-azaspiro[3.4]octan-2-yl)-1,2,4-oxadiazole-3-carboxamide] it was 1 to 10 µM; in that of `CC(C)(C)n1cc(C(=O)NCc2ccc(-c3nc(N4CCOCC4)cn4nccc34)cc2)nn1` [Example 26, 1-(tert-butyl)-N-(4-(6-morpholinopyrazolo[1,5-a]pyrazin-4-yl)benzyl)-1H-1,2,3-triazole-4-carboxamide], 0.01 to 1 µM.
In the case of `Cn1cc(-c2cn3nccc3c(N3CCC(C)(CNC(=O)c4nnn(C(C)(C)C)n4)C3)n2)cn1` (stereo not shown) [Example 48, 2-(tert-butyl)-N-((3-methyl-1-(6-(1-methyl-1H-pyrazol-4-yl)pyrazolo[1,5-a]pyrazin-4-yl)pyrrolidin-3-yl)methyl)-2H-tetrazole-5-carboxamide] it was 0.01 to 1 µM; in that of `CN(C)c1cn2nccc2c(-c2ccc(CNC(=O)c3noc(C(C)(C)C)n3)cc2)n1` [Example 135, 5-(tert-butyl)-N-(4-(6-(dimethylamino)pyrazolo[1,5-a]pyrazin-4-yl)benzyl)-1,2,4-oxadiazole-3-carboxamide], 0.01 to 1 µM; in that of `Cn1cc(-c2cn3nccc3c(N3CCC(C)(CNC(=O)c4noc(C(C)(C)C)n4)C3)n2)cn1` (stereo not shown) [Example 42, 5-(tert-butyl)-N-((3-methyl-1-(6-(1-methyl-1H-pyrazol-4-yl)pyrazolo[1,5-a]pyrazin-4-yl)pyrrolidin-3-yl)methyl)-1,2,4-oxadiazole-3-carboxamide], 1 to 10 µM.
`Cn1cc(-c2cn3nccc3c(N3CCC(C)(CNC(=O)c4cnc(C(C)(C)C)o4)C3)n2)cn1` (stereo not shown) [Example 50, 2-(tert-butyl)-N-((3-methyl-1-(6-(1-methyl-1H-pyrazol-4-yl)pyrazolo[1,5-a]pyrazin-4-yl)pyrrolidin-3-yl)methyl)oxazole-5-carboxamide]: the IC50 was in the range of 1 to 10 µM.
On to `Cn1cc(-c2cn3nccc3c(-c3ccc(CNC(=O)c4ccn(C(C)(C)C)n4)c(C(F)F)c3)n2)cn1` [Example 103, 1-(tert-butyl)-N-(2-(difluoromethyl)-4-(6-(1-methyl-1H-pyrazol-4-yl)pyrazolo[1,5-a]pyrazin-4-yl)benzyl)-1H-pyrazole-3-carboxamide], for which the IC50 lay in the range of 0.001 to 0.01 µM.
In the case of `C[C@H]1C[C@@H](CNC(=O)c2cn(C(C)(C)C)nn2)CCN1c1nc(-c2cnn(C)c2)cn2nccc12` (single isomer, unassigned) [Example 142] it was 0.01 to 1 µM; in that of `C[C@H]1CN(c2nc(-c3cnn(C)c3)cn3nccc23)CC[C@H]1CNC(=O)c1noc(C2(C)CC2)n1` (single isomer, unassigned) [Example 147], 0.01 to 1 µM; in that of `C[C@H]1C[C@H](CNC(=O)c2cn(C(C)(C)C)nn2)CCN1c1nc(-c2cnn(C)c2)cn2nccc12` (single isomer, unassigned) [Example 140], 0.01 to 1 µM.
In the case of `Cn1cc(-c2cn3nccc3c(N3CCC4(CC(NC(=O)c5noc(C(C)(C)C)n5)C4)C3)n2)cn1` (single isomer, unassigned) [Example 53, 5-(tert-butyl)-N-((2r,4s)-6-(6-(1-methyl-1H-pyrazol-4-yl)pyrazolo[1,5-a]pyrazin-4-yl)-6-azaspiro[3.4]octan-2-yl)-1,2,4-oxadiazole-3-carboxamide] it was 0.01 to 1 µM.

Usually IC50 stands for the concentration that inhibits the measured activity by half.
